Assay results as given in patent publication US10703765B2 (priority 2014, dated 2020).
Counter-ions that a name gives are not always drawn. Like-named read-outs stand apart in the source and are kept apart here.

Biological target: human σ1 receptor (Homo sapiens, UniProt Q99720)
Assay: biochemical
Format: binding
Parameters: μ and σ1 dual binding: key to the marks not given beside the values
[1] = combined class from Ki-σ1 (human σ1 receptor, A1) and Ki-μ (human μ-opioid receptor, A2) radioligand binding
[2] = read-out: μ and σ1 dual binding

Chain of human σ1 receptor (Q99720 whole entry): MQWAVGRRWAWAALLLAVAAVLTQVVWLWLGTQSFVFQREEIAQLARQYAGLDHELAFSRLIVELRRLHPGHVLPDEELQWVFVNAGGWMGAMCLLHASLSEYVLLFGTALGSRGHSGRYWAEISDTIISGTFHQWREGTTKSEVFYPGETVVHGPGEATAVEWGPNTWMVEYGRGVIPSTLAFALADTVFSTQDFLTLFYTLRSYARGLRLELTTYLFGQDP

| Compound | Ki [2] | further results |
| --- | --- | --- |
| CC1OC2(CCN(CC(O)c3ccccc3)CC2)CN(c2ccccc2)C1=O (mixture of isomers) [Example 150, 9-(2-hydroxy-2-phenylethyl)-2-methyl-4-phenyl-1-oxa-4,9-diazaspiro[5.5]undecan-3-one] |  | Ki: > 500 nM |
| COc1ccc(N2CC3(CCN(CCc4ccccc4)CC3)OC(C)C2=O)cc1.Cl (stereo not shown) [Example 1, 4-(4-methoxyphenyl)-2-methyl-9-phenethyl-1-oxa-4,9-diazaspiro[5.5]undecan-3-one hydrochloride] |  | μ and σ1 dual binding: ++ |
| COc1ccccc1N1CC2(CCN(Cc3ccccc3)CC2)OCC1=O [Example 2, 9-benzyl-4-(2-methoxyphenyl)-1-oxa-4,9-diazaspiro[5.5]undecan-3-one] |  | μ and σ1 dual binding [1]: ++ |
| Cl.O=C1COC2(CCN(Cc3ccccc3)CC2)CN1c1ccccc1 [Example 3, 9-benzyl-4-phenyl-1-oxa-4,9-diazaspiro[5.5]undecan-3-one hydrochloride] |  | μ and σ1 dual binding: ++ |
| COc1ccccc1N1CC2(CCN(CCc3ccccc3)CC2)OCC1=O [Example 4, 4-(2-methoxyphenyl)-9-phenethyl-1-oxa-4,9-diazaspiro[5.5]undecan-3-one] |  | μ and σ1 dual binding [1]: ++ |
| O=C1COC2(CCN(CCc3ccccc3)CC2)CN1c1ccccc1 [Example 5, 9-phenethyl-4-phenyl-1-oxa-4,9-diazaspiro[5.5]undecan-3-one] | < 500 nM |  |
| COc1cccc(N2CC3(CCN(Cc4ccccc4)CC3)OCC2=O)c1 [Example 6, 9-benzyl-4-(3-methoxyphenyl)-1-oxa-4,9-diazaspiro[5.5]undecan-3-one] |  | μ and σ1 dual binding [1]: ++ |
| O=C1COC2(CCN(Cc3ccccc3)C2)CN1c1ccccc1 (stereo not shown) [Example 7, 2-benzyl-9-phenyl-6-oxa-2,9-diazaspiro[4.5]decan-8-one] |  | μ and σ1 dual binding [1]: ++ |
| COc1cccc(N2CC3(CCN(CCc4ccccc4)CC3)OCC2=O)c1 [Example 8, 4-(3-methoxyphenyl)-9-phenethyl-1-oxa-4,9-diazaspiro[5.5]undecan-3-one] |  | μ and σ1 dual binding [1]: ++ |
| CC1OC2(CCN(CCc3ccccc3)CC2)CN(c2ccccc2)C1=O (stereo not shown) [Example 9, 2-methyl-9-phenethyl-4-phenyl-1-oxa-4,9-diazaspiro[5.5]undecan-3-one] | < 100 nM |  |
| C[C@H]1OC2(CCN(CCc3ccccc3)CC2)CN(c2ccccc2)C1=O [Example 10a, (R)-2-methyl-9-phenethyl-4-phenyl-1-oxa-4,9-diazaspiro[5.5]undecan-3-one] | < 100 nM |  |
| C[C@@H]1OC2(CCN(CCc3ccccc3)CC2)CN(c2ccccc2)C1=O [Example 10b, (S)-2-methyl-9-phenethyl-4-phenyl-1-oxa-4,9-diazaspiro[5.5]undecan-3-one] | < 100 nM |  |
| COCC1OC2(CCN(CCc3ccccc3)CC2)CN(c2ccccc2)C1=O (stereo not shown) [Example 11, 2-(methoxymethyl)-9-phenethyl-4-phenyl-1-oxa-4,9-diazaspiro[5.5]undecan-3-one] | < 100 nM |  |
| COC[C@@H]1OC2(CCN(CCc3ccccc3)CC2)CN(c2ccccc2)C1=O [Example 12a, (S)-2-(methoxymethyl)-9-phenethyl-4-phenyl-1-oxa-4,9-diazaspiro[5.5]undecan-3-one] | < 500 nM |  |
| COC[C@H]1OC2(CCN(CCc3ccccc3)CC2)CN(c2ccccc2)C1=O [Example 12b, (R)-2-(methoxymethyl)-9-phenethyl-4-phenyl-1-oxa-4,9-diazaspiro[5.5]undecan-3-one] | < 100 nM |  |
| CCC1OC2(CCN(CCc3ccccc3)CC2)CN(c2ccccc2)C1=O (stereo not shown) [Example 13, 2-ethyl-9-phenethyl-4-phenyl-1-oxa-4,9-diazaspiro[5.5]undecan-3-one] | < 100 nM |  |
| COC(=O)CC1OC2(CCN(CCc3ccccc3)CC2)CN(c2ccccc2)C1=O (stereo not shown) [Example 14, methyl 2-(3-oxo-9-phenethyl-4-phenyl-1-oxa-4,9-diazaspiro[5.5]undecan-2-yl)acetate hydrochloride] | < 100 nM |  |
| COc1cccc(N2CC3(CCN(CCc4ccccc4)CC3)OC(C)C2=O)c1 (stereo not shown) [Example 15, 4-(3-methoxyphenyl)-2-methyl-9-phenethyl-1-oxa-4,9-diazaspiro[5.5]undecan-3-one hydrochloride] | < 500 nM |  |
| CC1OC2(CCN(Cc3ccccc3)CC2)CN(c2ccccc2)C1=O.Cl (stereo not shown) [Example 16, 9-benzyl-2-methyl-4-phenyl-1-oxa-4,9-diazaspiro[5.5]undecan-3-one hydrochloride] |  | μ and σ1 dual binding: ++ |
| CC(C)C1OC2(CCN(CCc3ccccc3)CC2)CN(c2ccccc2)C1=O (stereo not shown) [Example 17, 2-isopropyl-9-phenethyl-4-phenyl-1-oxa-4,9-diazaspiro[5.5]undecan-3-one hydrochloride] | < 100 nM |  |

| Compound | Ki [2] | further results |
| --- | --- | --- |
| CC1(C)OC2(CCN(CCc3ccccc3)CC2)CN(c2ccccc2)C1=O [Example 18, 2,2-dimethyl-9-phenethyl-4-phenyl-1-oxa-4,9-diazaspiro[5.5]undecan-3-one] | < 100 nM |  |
| O=C1C(COCc2ccccc2)OC2(CCN(CCc3ccccc3)CC2)CN1c1ccccc1 (stereo not shown) [Example 19, 2-((benzyloxy)methyl)-9-phenethyl-4-phenyl-1-oxa-4,9-diazaspiro[5.5]undecan-3-one hydrochloride] | < 100 nM |  |
| CC1OC2(CCN(CCc3ccccc3)CC2)CN(c2ccn(C)n2)C1=O.Cl (stereo not shown) [Example 20, 2-methyl-4-(1-methyl-1H-pyrazol-3-yl)-9-phenethyl-1-oxa-4,9-diazaspiro[5.5]undecan-3-one hydrochloride] |  | μ and σ1 dual binding: ++ |
| C=C1OC2(CCN(CCc3ccccc3)CC2)CN(c2ccccc2)C1=O [Example 21, 2-methylene-9-phenethyl-4-phenyl-1-oxa-4,9-diazaspiro[5.5]undecan-3-one] | > 500 nM |  |
| C=C1OC2(CCN(CCc3ccccc3)CC2)CN(c2ccccc2F)C1=O [Example 22, 4-(2-fluorophenyl)-2-methylene-9-phenethyl-1-oxa-4,9-diazaspiro[5.5]undecan-3-one] | > 500 nM |  |
| CC1OC2(CCN(CCc3ccc([N+](=O)[O-])cn3)CC2)CN(c2ccccc2)C1=O (stereo not shown) [Example 23, 2-methyl-9-(2-(5-nitropyridin-2-yl)ethyl)-4-phenyl-1-oxa-4,9-diazaspiro[5.5]undecan-3-one] | > 500 nM |  |
| CC1OC2(CCN(CCc3ccc([N+](=O)[O-])cn3)CC2)CN(c2ccccc2F)C1=O (stereo not shown) [Example 24, 4-(2-fluorophenyl)-2-methyl-9-(2-(5-nitropyridin-2-yl)ethyl)-1-oxa-4,9-diazaspiro[5.5]undecan-3-one] | > 500 nM |  |
| CC1OC2(CCN(CCc3ncccc3[N+](=O)[O-])CC2)CN(c2ccccc2F)C1=O (stereo not shown) [Example 25, 4-(2-fluorophenyl)-2-methyl-9-(2-(3-nitropyridin-2-yl)ethyl)-1-oxa-4,9-diazaspiro[5.5]undecan-3-one] | > 500 nM |  |
| CC1OC2(CCN(CCc3ncccn3)CC2)CN(c2ccccc2)C1=O (stereo not shown) [Example 26, 2-methyl-4-phenyl-9-(2-(pyrimidin-2-yl)ethyl)-1-oxa-4,9-diazaspiro[5.5]undecan-3-one hydrochloride] | > 500 nM |  |
| CC1OC2(CCN(CCc3cccnc3[N+](=O)[O-])CC2)CN(c2ccccc2)C1=O (stereo not shown) [Example 27, 2-methyl-9-(2-(2-nitropyridin-3-yl)ethyl)-4-phenyl-1-oxa-4,9-diazaspiro[5.5]undecan-3-one] | > 500 nM |  |
| CC1OC2(CCN(CCc3cc(C(F)(F)F)ccn3)CC2)CN(c2ccccc2)C1=O (stereo not shown) [Example 28, 2-methyl-4-phenyl-9-(2-(4-(trifluoromethyl)pyridin-2-yl)ethyl)-1-oxa-4,9-diazaspiro[5.5]undecan-3-one hydrochloride] |  | Ki: < 100 nM |
| CC1OC2(CCN(CCc3cccc(N)n3)CC2)CN(c2ccccc2)C1=O (stereo not shown) [Example 29, 9-(2-(6-aminopyridin-2-yl)ethyl)-2-methyl-4-phenyl-1-oxa-4,9-diazaspiro[5.5]undecan-3-one] |  | Ki: < 500 nM |
| CC1OC2(CCN(CCc3cc(N)ccn3)CC2)CN(c2ccccc2)C1=O (stereo not shown) [Example 30, 9-(2-(4-aminopyridin-2-yl)ethyl)-2-methyl-4-phenyl-1-oxa-4,9-diazaspiro[5.5]undecan-3-one hydrochloride] | > 500 nM |  |
| CC1OC2(CCN(CCc3cccc(C(F)(F)F)n3)CC2)CN(c2ccccc2F)C1=O (stereo not shown) [Example 31, 4-(2-fluorophenyl)-2-methyl-9-(2-(6-(trifluoromethyl)pyridin-2-yl)ethyl)-1-oxa-4,9-diazaspiro[5.5]undecan-3-one hydrochloride] |  | Ki: < 500 nM |
| CC1OC2(CCN(CCc3ccnc(N)c3)CC2)CN(c2ccccc2)C1=O (stereo not shown) [Example 32, 9-(2-(2-aminopyridin-4-yl)ethyl)-2-methyl-4-phenyl-1-oxa-4,9-diazaspiro[5.5]undecan-3-one] |  | μ and σ1 dual binding [1]: ++ |
| CC1OC2(CCN(CCc3ncccc3C(F)(F)F)CC2)CN(c2ccccc2)C1=O (stereo not shown) [Example 33, 2-methyl-4-phenyl-9-(2-(3-(trifluoromethyl)pyridin-2-yl)ethyl)-1-oxa-4,9-diazaspiro[5.5]undecan-3-one hydrochloride] |  | Ki: < 500 nM |
| CC1OC2(CCN(CCc3ccc(C(F)(F)F)cn3)CC2)CN(c2ccccc2)C1=O (stereo not shown) [Example 34, 2-methyl-4-phenyl-9-(2-(5-(trifluoromethyl)pyridin-2-yl)ethyl)-1-oxa-4,9-diazaspiro[5.5]undecan-3-one hydrochloride] | > 500 nM |  |
| COc1ccnc(CCN2CCC3(CC2)CN(c2ccccc2)C(=O)C(C)O3)c1 (stereo not shown) [Example 35, 9-(2-(4-methoxypyridin-2-yl)ethyl)-2-methyl-4-phenyl-1-oxa-4,9-diazaspiro[5.5]undecan-3-one] |  | μ and σ1 dual binding [1]: ++ |
| CC1OC2(CCN(CCc3ccc(C#N)cn3)CC2)CN(c2ccccc2)C1=O (stereo not shown) [Example 36, 6-(2-(2-methyl-3-oxo-4-phenyl-1-oxa-4,9-diazaspiro[5.5]undecan-9-yl)ethyl)nicotinonitrile hydrochloride] | > 500 nM |  |
| CC1OC2(CCN(CCc3ncccc3Cl)CC2)CN(c2ccccc2)C1=O (stereo not shown) [Example 37, 9-(2-(3-chloropyridin-2-yl)ethyl)-2-methyl-4-phenyl-1-oxa-4,9-diazaspiro[5.5]undecan-3-one hydrochloride] |  | Ki: < 500 nM |
